Assay [1] deals with Helicobacter pylori. Kind of assay: Inhibition zone experiment (Oxford cup method) of health care product, Example 9. In kind it is cell-based. Particulars: 100 μL sample. On the procedure: The health care product for inhibiting Helicobacter pylori infection was prepared into a suspension (a density of Lactobacillus plantarum Lp05 was 10^9 CFU/mL) with water, 100 μL suspension was taken and coated onto a surface of a punctured Colombian blood agar medium (a volume of the medium was 20 mL) containing 5% sheep blood without an antibiotic, and any one of the following groups of liquids was added separately to form different experimental groups: 100 μL suspension of the health care product to be tested, 100 μL positive control (a metronidazole solution having a mass concentration of 0.025%), 100 μL negative control (a PBS buffer) and a blank control (100 μL MRS liquid medium). Effects of inhibiting the growth of Helicobacter pylori at 48 h and 72 h were determined through an Oxford cup method.

The test system of assay [2] is Helicobacter pylori. Kind of assay: Inhibition zone experiment (Oxford cup method), Example 6. In kind it is cell-based. Particulars: 100 μL sample. On the procedure:
In this example, an inhibitory effect of the Lactobacillus plantarum in Example 3 on the growth of Helicobacter pylori was verified. Steps are described below. • (1) Helicobacter pylori at −80° C. was taken out, coated on a Columbia blood agar medium containing 5% sheep blood (v/v) for activation and culture and cultured in a microaerobic environment for 48 h at 37° C. • (2) The Lactobacillus plantarum was inoculated in an MRS liquid medium and cultured for 18 h at 37° C. for activation two consecutive times to obtain an activation solution. The activation solution was inoculated in an MRS liquid medium at an inoculum volume of 2% (v/v) and cultured for 18 h at 37° C. to obtain a bacterial solution. The bacterial solution was centrifuged at 8000 g for 10 min, and supernatant was taken and passed through a 0.22 μm sterile filtration membrane to obtain supernatant of the Lactobacillus plantarum. […] Effects of inhibiting the growth of Helicobacter pylori at 48 h and 72 h by the Lactobacillus plantarum were determined through the Oxford cup method.

Structures are written as SMILES.

In the case of `Cc1ncc([N+](=O)[O-])n1CCO` [Positive control, metronidazole], the “Diameter of Inhibition Zone at 48 h (mm)” value in the assay on Helicobacter pylori [1] (48 h of culture) is listed as 9.3 ± 2.5 mm; in the assay with Helicobacter pylori [2] (48 h of culture), 11.2 ± 2.3 mm. The “Diameter of Inhibition Zone at 72 h (mm)” value was determined as 9.8 ± 2.5 mm in the assay on Helicobacter pylori [1] (72 h of culture) and 12.4 ± 3.1 mm with Helicobacter pylori [2] (72 h of culture).

Source of the values: patent US12648975B2, “Lactobacillus plantarum against Helicobacter pylori infection, and use thereof” (WECARE PROBIOTICS CO., LTD., priority 2021, dated 2026).
